Patent US11124479B2, “Oligopyrroles as antagonists of islet amyloid polypeptide oligomerization” (New York University, priority 2017, dated 2021)

Tests used:
Type in all cases: biochemical
[1] = target: T1, islet amyloid polypeptide (IAPP) (Homo sapiens, UniProt P10997); test: ThT-based kinetic assay of IAPP fibrillation; conditions: for relative t50 of IAPP fibrillation versus control reaction: 15 μM IAPP, equimolar ratio
T1 construct: IAPP is a 37 residue neuropancreatic hormone peptide; purchased Anaspec (Fremont, Calif.)
T1 sequence (P10997 34-70 limits assumed): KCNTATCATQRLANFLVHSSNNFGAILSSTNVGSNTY
From the text: The aggregation kinetics of IAPP was probed using an exogenous reporter, Thioflavin T (ThT), which quantifies the amount of fibers in solution without perturbing the aggregation kinetics of IAPP (see Wolfe, L. S.; Calabrese, M. F.; Nath, A.; Blaho, D. V.; Miranker, A. D.; Xiong, Y. Proc. Natl. Acad. Sci. U.S.A. 2010, 107, 16863-16868; Levine, H. Protein Sci. 1993, 2, 404-410). […] The kinetics of IAPP fibrillation was quantified using the reaction midpoint, t50, which is the time required to reach 50% fluorescence in the fibrillation reaction (FIG. 8).
(§1) Kinetic assays were conducted on a FlexStation 3 Multi-Mode Microplate reader from Molecular Devices (Sunnyvale, Calif.). Experiments were conducted in triplicate in a 96-well plate with a final volume of 200 μL per well. Every measurement was an average of 50 readings. The aggregation of IAPP was initiated by its addition from a stock solution (1 mM in DMSO) to phosphate buffer. The stoichiometry ratio for ThT to IAPP was 0.5:1. Peptide aggregation was monitored by ThT fluorescence (λex=445 nm and λem=485 nm). The blank sample contained all the components of the peptide samples except peptide. The sample data were processed by subtracting the blank and renormalizing the fluorescence intensity by setting the maximum value to 1.
(§2) Kinetic assays in the presence of the compounds of the invention were conducted under the same conditions. Small molecules were added from a stock solution (1 mM or 10 mM in DMSO) to keep the final concentration of DMSO less than 1.0% (v/v). Small molecules were added to the wells with ThT and buffer and mixed gently with a pipette before adding IAPP. To keep the conditions identical, an equal amount of DMSO was added to the wells with IAPP only reactions. For the aggregation kinetics of Aβ42, the peptide was dissolved in 1N NaOH (0.5-1 mM) and vortexed for 2 min. to ensure the complete solubility. The aggregation of 3 μM Aβ42 was initiated by addition of peptide from a stock solution (in 1 N NaOH, 0.5-1 mM) to phosphate buffer.
(§3) Kinetic profiles were processed using Origin (version 9.1). Kinetic curves were fit using the built-in sigmoidal fit. Each run was fit independently to extract the t50 (time required to reach 50% of the maximum fluorescence intensity). Error bars represent standard deviations from the mean of at least three independent experiments.
The membrane model system selected for the amyloid assays is a mixture of DOPG (dioleoylphosphatidylglycerol) and DOPC (dioleoylphosphatidylcholine) at 3:7 molar ratio, which mimics physiological conditions (Ono, K.; Condron, M. M.; Teplow, D. B. Proc. Natl. Acad. Sci. U.S.A. 2009, 106, 14745-14750). The lipid catalyzed aggregation of IAPP was initiated by adding freshly prepared 15 μM IAPP (1 mM stock solution in DMSO) to the phosphate buffer (50 mM NaPi, 150 mM KCl, pH 7.4) containing 15 μM ThT and 750 μM of unilamellar liposomes (LUVs, DOPG:DOPC, 3:7, d=100 nm).

[2] = target: T1, islet amyloid polypeptide (IAPP); test: PICUP SDS-PAGE silver staining of IAPP oligomerization; conditions: 15 μM IAPP, equimolar ratio, up to 300 min
Protocol: The effect of ADH-101 on the oligomerization of IAPP was evaluated using performance photo-induced cross-linking of unmodified proteins (PICUP) SDS-PAGE-silver staining as described in Ono, K.; Condron, M. M.; Teplow, D. B. Proc. Natl. Acad. Sci. U.S.A. 2009, 106, 14745-14750 (FIG. 2E). IAPP was incubated in a buffer in the presence and absence of ADH-101 at an equimolar ratio, and the solutions were then treated with the cross-linking agent at various time intervals (FIG. 2E). IAPP forms oligomers of varying sizes as a function of time (FIG. 2E, Lane i-iv). […] Without wishing to be bound by any theory, it is postulated that ADH-101 forms a complex with monomeric IAPP and abolishes the oligomerization of IAPP.

[3] = target: T2, Aβ42 (Homo sapiens, UniProt P05067); test: ThT kinetic assay of Aβ42 fibrillation (specificity assay)
T2 construct: purchased
Protocol: as §1, §2, §3
To test the specificity of ADH-101 towards IAPP, the binding interaction of ADH-101 with Aβ peptide was investigated. […]

[4] = target: T1, islet amyloid polypeptide (IAPP); test: ThT-based kinetic assay of IAPP fibrillation

T2 sequence (P05067 672-713 limits assumed): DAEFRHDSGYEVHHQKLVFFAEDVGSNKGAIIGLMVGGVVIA

CCOC(=O)c1cc(NC(=O)c2cc(NC(=O)c3cc([N+](=O)[O-])cn3CC(C)C)cn2CC(C)C)cn1CCC(=O)O [ADH-101]
antagonist of oligomerization, fibrillation, and/or aggregation of IAPP (in words) [1]: effective antagonist | inhibition of IAPP aggregation ([1]; de novo (no lipid membrane), fivefold excess): completely abolishes | relative t50 of IAPP fibrillation versus control reaction ([1]; de novo / lipid free): 4.4 fold | change in the intensity of ThT ([1]; identical conditions without IAPP): no significant change | relative t50 of IAPP fibrillation versus control reaction ([1]; lipid catalyzed (750 μM LUVs, DOPG:DOPC 3:7)): 2.7 fold | fold better inhibitor of IAPP fibrillation than Acid Fuchsin ([1]; lipid catalyzed conditions): 3.5 fold | fold better inhibitor of IAPP fibrillation than Curcumin ([1]; lipid catalyzed conditions): 2.2 fold | fold better inhibitor of IAPP fibrillation than EGCG ([1]; lipid catalyzed conditions): 3.3 fold | inhibition of IAPP fibrillation ([1]; lipid catalyzed, stoichiometric ratio 10:1 (ADH-101:IAPP)): completely inhibits | IAPP oligomerization (PICUP) [2]: completely inhibits the formation of large aggregates | effect on Aβ42 fibrillation (in words) [3]: weak agonist | relative t50 for Aβ42 amyloid fiber formation ([3]; 3 μM Aβ42, equimolar ratio): 0.8 fold | t50 for the amyloid kinetics of Aβ42 in the presence of compound ([3]; 3 μM Aβ42, equimolar ratio, Aβ42 alone 4.22±0.51 h): 3.41 ± 0.32 h | inhibition of IAPP fibrillation when added during the lag phase, compared to premixed (t=0 h) ([4]; added at 1 h and 3 h, equimolar ratio, 10 μM IAPP): equally effective | effect on IAPP amyloid fibers (ThT fluorescence) ([4]; added to the fibers): no effect | factor of delay of IAPP amyloid kinetics ([4]; cholesterol-containing LUVs (30% cholesterol), 15 μM IAPP, equimolar ratio): 3.6
